What was measured:
[1] = molecular target: T1, smooth muscle spasms induced by histamine (ileum of the guinea pig) (Cavia porcellus, UniProt P31389); assay: In vitro antagonism of histamine-induced smooth muscle spasm, isolated ileum of the guinea pig (technique of MAGNUS); conditions: agonist histamine, oxygen Tyrode solution, 30° C; for Kb: read-out: pA2 (converted)
T1 construct: The isolated organs were kept alive in a thermostatic oxygen Tyrode solution at 30° C; from tissue; host or cells: isolated guinea pig ileum
Procedure: The pharmacological studies of the compounds according to the invention were directed essentially to the elucidation of the antispasmodic potentialities of the cations, particularly at the level of smooth muscle spasms induced by acetylcholine, histamine and Ba^++ ions. These investigations were carried out in vitro according to the technique of MAGNUS (Pflug. Arch. Ges. Physiol. 1904, 102, 349, and 1904, 103, 515 and 525) by using as biological indicators the jejunum of the rat for the first agonist and the ileum of the guinea pig for the two other agonists. The isolated organs were kept alive in a thermostatic oxygen Tyrode solution at 30° C and their contractions were recorded.
The response curve line as a function of the dose enabled the calculation of the affinity parameters (pA2 and pD'2) of the compounds according to the invention for the different types of receptor (VAN ROSSUM J.M. - Arch. Int. Pharmacodyn. 1963, 143, 299 -330).

[2] = tested on: smooth muscle spasms induced by acetylcholine, histamine and Ba^++ ions; assay: Type of antagonist exerted, overall from the isolated organ tests (acetylcholine, histamine, Ba^++); parameters: species or system rat; guinea pig; conditions: for TYPE OF ANTAGONIST EXERTED: Table I, over the three agonists; for mechanism and intensity of action compared with Tiemonium and papaverine: interpretation of Table I by principles of molecular pharmacology (ARIENS)
Procedure: (§1) The pharmacological studies of the compounds according to the invention were directed essentially to the elucidation of the antispasmodic potentialities of the cations, particularly at the level of smooth muscle spasms induced by acetylcholine, histamine and Ba^++ ions. […] The isolated organs were kept alive in a thermostatic oxygen Tyrode solution at 30° C and their contractions were recorded.

[3] = molecular target: T2, smooth muscle spasms induced by acetylcholine (jejunum of the rat) (Rattus norvegicus, UniProt P08483); assay: In vitro antagonism of acetylcholine-induced smooth muscle spasm, isolated jejunum of the rat (technique of MAGNUS); conditions: agonist acetylcholine, oxygen Tyrode solution, 30° C; for Kb: read-out: pA2 (converted)
T2 construct: The isolated organs were kept alive in a thermostatic oxygen Tyrode solution at 30° C; from tissue; host or cells: isolated rat jejunum
Procedure: as §1

[4] = tested on: smooth muscle spasms induced by Ba^++ ions (ileum of the guinea pig); assay: In vitro antagonism of Ba^++-induced smooth muscle spasm, isolated ileum of the guinea pig (technique of MAGNUS); conditions: agonist Ba^++, oxygen Tyrode solution, 30° C
Procedure: as §1

[5] = tested on: smooth muscle spasms induced by acetylcholine (jejunum of the rat); assay: In vitro antagonism of acetylcholine-induced smooth muscle spasm, isolated jejunum of the rat (technique of MAGNUS); conditions: agonist acetylcholine, oxygen Tyrode solution, 30° C
Procedure: as §1

T2 sequence (P08483 whole entry): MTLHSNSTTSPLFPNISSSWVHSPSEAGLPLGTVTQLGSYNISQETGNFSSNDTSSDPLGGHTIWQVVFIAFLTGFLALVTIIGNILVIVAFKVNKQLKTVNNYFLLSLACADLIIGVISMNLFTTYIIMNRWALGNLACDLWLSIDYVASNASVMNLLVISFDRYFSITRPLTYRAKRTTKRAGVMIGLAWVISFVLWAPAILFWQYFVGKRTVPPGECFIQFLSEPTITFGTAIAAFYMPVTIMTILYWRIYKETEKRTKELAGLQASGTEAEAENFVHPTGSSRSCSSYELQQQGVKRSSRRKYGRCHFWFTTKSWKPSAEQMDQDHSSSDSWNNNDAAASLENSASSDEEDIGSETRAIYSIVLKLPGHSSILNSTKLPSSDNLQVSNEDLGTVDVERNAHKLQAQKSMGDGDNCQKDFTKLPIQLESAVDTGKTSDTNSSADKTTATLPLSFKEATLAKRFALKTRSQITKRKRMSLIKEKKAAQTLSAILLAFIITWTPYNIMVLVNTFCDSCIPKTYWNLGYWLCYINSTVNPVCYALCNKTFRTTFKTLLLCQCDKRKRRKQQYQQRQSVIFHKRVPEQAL
T1 sequence (P31389 whole entry): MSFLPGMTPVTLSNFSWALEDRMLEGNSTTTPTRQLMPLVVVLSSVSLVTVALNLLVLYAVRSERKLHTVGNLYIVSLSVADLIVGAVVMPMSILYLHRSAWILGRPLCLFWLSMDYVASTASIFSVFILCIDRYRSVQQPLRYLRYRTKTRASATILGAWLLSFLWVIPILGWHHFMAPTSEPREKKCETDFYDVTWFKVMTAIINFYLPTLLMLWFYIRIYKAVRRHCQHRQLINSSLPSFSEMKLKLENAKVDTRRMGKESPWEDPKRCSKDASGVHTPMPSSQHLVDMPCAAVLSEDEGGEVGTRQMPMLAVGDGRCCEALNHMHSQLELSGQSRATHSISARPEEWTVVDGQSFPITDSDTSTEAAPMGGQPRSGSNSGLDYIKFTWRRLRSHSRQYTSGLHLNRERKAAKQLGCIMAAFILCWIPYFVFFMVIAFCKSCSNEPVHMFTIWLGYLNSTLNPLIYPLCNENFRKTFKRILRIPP

Molecule	Kb [1] [µM]	TYPE OF ANTAGONIST EXERTED [2]	mechanism and intensity of action compared with Tiemonium and papaverine [2]	Kb [3] [µM]	pA2 [4]	pD'2 [1]	pD'2 [5]	pD'2 [4]	pA2 [1]	pA2 [3]
C[N+]1(C)CCOC(CC(O)(c2ccccc2)c2ccccc2)C1 (centres unmarked) [Compound 2]	6.31	Competitive	great similarity of mechanism and intensity of action between compound no 2 and Tiemonium	0.2	4.90					
C[N+]1(C)CCOC(CC(O)(c2ccc(F)cc2)c2ccc(F)cc2)C1 (centres unmarked) [Compound 7]	10	Dualist	a mechanism of action which brings into play at the same time the competitive mechanism of Tiemonium and the non-competitive mechanism of papaverine	3.47	5.87	3.70	3.21	4.04		
COc1ccc(Cc2nccc3cc(OC)c(OC)cc23)cc1OC [Papaverine, papaverine, reference compound]						4.98	5.03	4.78		
Tiemonium [reference compound]		Competitive			4.95				5.21	7
